Test results: ChEMBL document CHEMBL1201862, “PubChem BioAssay data set” (2004)
Calls of active or inactive are those of the source.

Experiments:
[1] = target: Melanin-concentrating hormone receptor 1 (Homo sapiens, UniProt Q99705); experiment: Late-stage fluorescence-based counterscreen for antagonists of the G-protein coupled receptor 7 (GPR7): cell-based dose response assay to identify antagonists of the melanin-concentrating hormone receptor 1 (MCHR1) Set 6.; type: functional
[2] = target: T1, Neuropeptides B/W receptor type 1 (Homo sapiens, UniProt P48145); experiment: GPR7 antagonist potency, late-stage follow-up, cell-based, fluorescence, dose response, set 6 (AID 588583); type: functional
T1 sequence (P48145 whole entry): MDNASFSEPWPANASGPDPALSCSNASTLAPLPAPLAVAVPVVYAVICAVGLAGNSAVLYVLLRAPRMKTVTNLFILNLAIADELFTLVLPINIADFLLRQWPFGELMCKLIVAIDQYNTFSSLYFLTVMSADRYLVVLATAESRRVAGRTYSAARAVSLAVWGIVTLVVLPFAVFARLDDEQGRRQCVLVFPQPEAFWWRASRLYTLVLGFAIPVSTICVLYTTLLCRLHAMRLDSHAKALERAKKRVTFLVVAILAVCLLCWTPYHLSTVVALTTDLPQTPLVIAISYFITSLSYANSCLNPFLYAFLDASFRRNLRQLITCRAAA

[3] = nonselective inhibitors of cellular cAMP signaling, dose response, counter-screen for MC4R biased antagonist project, cell-based, TR-FRET cAMP detection (AID 602305); type: functional;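 further: U2OS cells stimulated with forskolin near its EC80 as the cAMP inducer; potency is for inhibition of forskolin-stimulated cAMP signaling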
Melanocortin receptor 4 = Melanocortin receptor 4 (Homo sapiens, UniProt P32245); experiment: MC4R antagonist potency on cAMP, dose response, cell-based, TR-FRET, biased antagonists (AID 602298); type: functional;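 further: antagonist potency against agonist-stimulated cAMP production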
Chain of Melanocortin receptor 4 (P32245 whole entry): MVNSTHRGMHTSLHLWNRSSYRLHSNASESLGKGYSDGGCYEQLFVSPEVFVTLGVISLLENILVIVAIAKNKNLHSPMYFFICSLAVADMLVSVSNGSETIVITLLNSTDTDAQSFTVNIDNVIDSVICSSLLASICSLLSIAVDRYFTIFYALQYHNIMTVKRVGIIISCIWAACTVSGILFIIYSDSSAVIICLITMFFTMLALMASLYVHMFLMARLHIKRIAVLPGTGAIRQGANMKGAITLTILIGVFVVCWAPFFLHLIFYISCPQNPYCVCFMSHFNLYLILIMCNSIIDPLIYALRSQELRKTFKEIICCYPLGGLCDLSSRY

P388/ADR = experiment: cells; type: functional; settings: Mus musculus
P388 = experiment: cells; type: functional; settings: Mus musculus
SN12K1 = experiment: cells; type: functional; settings: Homo sapiens
Beta-lactamase [4] = target: T2, Beta-lactamase (Pseudomonas aeruginosa, UniProt Q79MP6); experiment: […] counterscreen for selective VIM-2 inhibitors: dose response biochemical high throughput screening assay to identify inhibitors of IMP-1 metallo-beta-lactamase.
T2 sequence (Q79MP6 whole entry): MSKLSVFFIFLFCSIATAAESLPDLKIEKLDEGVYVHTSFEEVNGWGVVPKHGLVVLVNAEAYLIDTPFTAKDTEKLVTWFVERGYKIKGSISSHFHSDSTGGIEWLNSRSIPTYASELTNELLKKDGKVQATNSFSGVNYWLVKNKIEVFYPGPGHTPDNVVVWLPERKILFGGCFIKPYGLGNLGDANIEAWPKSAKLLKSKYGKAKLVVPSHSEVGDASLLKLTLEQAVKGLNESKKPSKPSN

Beta-lactamase [5] = target: T2, Beta-lactamase; experiment: IMP-1 metallo-beta-lactamase inhibitors, dose response, selectivity assay for VIM-2 inhibitor project, biochemical, epi-absorbance (AID 1920)
Beta-lactamase [6] = target: Beta-lactamase (Salmonella choleraesuis (strain SC-B67), UniProt Q5J463); experiment: Epi-absorbance-based counterscreen for selective VIM-2 inhibitors: dose response biochemical high throughput screening assay to identify inhibitors of TEM-1 serine-beta-lactamase.
Chain of Beta-lactamase (Salmonella choleraesuis (strain SC-B67), UniProt Q5J463) (Q5J463 whole entry): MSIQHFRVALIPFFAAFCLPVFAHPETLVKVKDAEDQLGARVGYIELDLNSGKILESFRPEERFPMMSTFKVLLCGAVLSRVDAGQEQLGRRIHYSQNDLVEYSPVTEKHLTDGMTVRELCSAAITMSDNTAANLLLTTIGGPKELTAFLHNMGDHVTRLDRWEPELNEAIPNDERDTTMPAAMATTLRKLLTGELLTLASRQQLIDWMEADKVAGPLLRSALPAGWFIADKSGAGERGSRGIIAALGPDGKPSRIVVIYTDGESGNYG

[7] = target: T3, Heat shock factor protein 1 (Mus musculus, UniProt P38532); experiment: inhibition of MG132-induced HSE-luciferase signal, confirmation, cell-based, NIH3T3, luminescence, dose retest (AID 2382); type: functional;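 further: NIH3T3 fibroblasts with HSF1-driven luciferase reporter stressed by proteasome inhibitor MG132; luminescence from HSF1-driven luciferase expression after 8 hours of MG132 stress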
T3 sequence (P38532 whole entry): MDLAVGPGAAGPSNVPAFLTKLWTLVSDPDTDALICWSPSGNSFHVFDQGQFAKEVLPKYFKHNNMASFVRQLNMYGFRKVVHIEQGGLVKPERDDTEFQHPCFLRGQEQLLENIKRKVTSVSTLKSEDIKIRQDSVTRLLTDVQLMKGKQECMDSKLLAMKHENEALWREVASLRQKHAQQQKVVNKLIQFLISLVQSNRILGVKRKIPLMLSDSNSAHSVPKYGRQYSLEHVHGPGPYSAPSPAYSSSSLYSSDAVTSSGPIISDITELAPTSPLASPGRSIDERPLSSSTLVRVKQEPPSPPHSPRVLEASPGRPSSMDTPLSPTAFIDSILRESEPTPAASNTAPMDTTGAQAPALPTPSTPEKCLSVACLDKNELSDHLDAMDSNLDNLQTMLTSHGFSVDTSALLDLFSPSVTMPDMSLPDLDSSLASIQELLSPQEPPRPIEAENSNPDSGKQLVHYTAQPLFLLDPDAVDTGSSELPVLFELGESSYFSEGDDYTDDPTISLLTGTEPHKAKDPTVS

Chain of Melanin-concentrating hormone receptor 1 (Q99705 whole entry): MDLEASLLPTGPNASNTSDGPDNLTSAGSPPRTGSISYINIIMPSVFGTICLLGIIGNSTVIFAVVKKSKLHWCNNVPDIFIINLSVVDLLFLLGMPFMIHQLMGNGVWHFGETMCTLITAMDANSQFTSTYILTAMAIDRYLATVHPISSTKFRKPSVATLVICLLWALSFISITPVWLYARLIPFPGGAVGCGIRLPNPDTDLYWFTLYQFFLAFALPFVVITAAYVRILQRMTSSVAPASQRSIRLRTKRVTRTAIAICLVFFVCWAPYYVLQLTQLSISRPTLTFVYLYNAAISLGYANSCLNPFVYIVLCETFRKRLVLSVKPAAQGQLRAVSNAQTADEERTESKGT

COc1ccc(Oc2c(Cl)cnn(Cc3ccccc3[N+](=O)[O-])c2=O)cc1
IC50 [1]: 1.41 µM (active) | IC50 [2]: 1.41 µM (active)

COc1ccc(OC)c(NC(=O)CCN2C(=O)c3cccc([N+](=O)[O-])c3C2=O)c1
IC50 [3]: > 64.6 µM (inactive) | IC50 (Melanocortin receptor 4): > 64.6 µM (inactive)

CC(C)(C)c1ccc2c(c1)OP1(Oc3cccc4cccnc34)(O2)Oc2ccc(C(C)(C)C)cc2O1
GI50 (P388/ADR): 1.02 µM (active) | GI50 (P388): 0.689 µM (active) | GI50 (SN12K1): 4.24 µM (inactive)

CSc1nc(NC2OCC(O)C(O)C2O)c(N)c(=O)n1C (centres undefined)
GI50 (P388/ADR): > 100 µM (inactive) | GI50 (P388): > 100 µM (inactive) | GI50 (SN12K1): > 100 µM (inactive)

Cc1ccc(-n2cccc2/C=C2\C(=N)N3N=C(C(C)C)SC3=NC2=O)cc1
IC50 [3]: > 64.6 µM (inactive) | IC50 (Melanocortin receptor 4): > 64.6 µM (inactive)

O=c1c(-c2ccc(F)c(F)c2)c(Br)cnn1Cc1cccc2ccccc12
IC50 [1]: 0.686 µM (active) | IC50 [2]: 0.686 µM (active)

CCn1c(-c2nn(-c3ccccc3)ccc2=O)n[nH]c1=S
IC50 (Beta-lactamase [4]): > 59.6 µM (inactive) | IC50 (Beta-lactamase [5]): > 59.6 µM (inactive) | IC50 (Beta-lactamase [6]): > 59.6 µM (inactive)

CC(C)(C#N)c1c(Cl)cnn(Cc2cccc3ccccc23)c1=O
IC50 [1]: 2.5 µM (active) | IC50 [2]: 2.5 µM (active)

COc1cccc(C(=O)Nc2sc(C(C)C)cc2C(N)=O)c1OC
EC50 [7]: > 195 µM (not active) | IC50 [3]: > 64.6 µM (inactive) | IC50 (Melanocortin receptor 4): > 64.6 µM (inactive)

COc1ccccc1-n1c(S)nnc1-c1ccco1
IC50 (Beta-lactamase [4]): > 59.6 µM (inactive) | IC50 (Beta-lactamase [5]): > 59.6 µM (inactive) | IC50 (Beta-lactamase [6]): > 59.6 µM (inactive)

O=C(CNC(=O)c1ccc(Oc2ccccc2)cc1)OC1CCCCC1=O (centres undefined)
IC50 [3]: > 64.6 µM (inactive) | IC50 (Melanocortin receptor 4): > 64.6 µM (inactive)

COc1ccc(C(C#N)c2c(Cl)cnn(Cc3cccc4ccccc34)c2=O)c(F)c1 (centres undefined)
IC50 [1]: 0.198 µM (active) | IC50 [2]: 0.198 µM (active)
